Experiment [1] has as its system EHS-RBM pellet (angiogenic challenge). The experiment is described as follows: In vivo EHS-RBM angiogenesis assay. Details: species or system CD2/F1 mice. The method, then: (§1) To determine the effects of dietary CLA on angiogenesis, the in vivo angiogenesis model of Kibbey et al., 1992 was utilized. Briefly, CD2/F1 female mice were placed on diets with or without CLA at 8 or 12 weeks of age, with 10–12 mice per group per experiment. After 6 weeks of diet, mice were given bilateral injections of EHS-RBM containing 1.25 μg/ml bFGF and 60 μg/ml heparan sulfate using a 25-gauge needle, into the region of mammary gland four. Mice were sacrificed 7 days after injection. Blood was collected from the trunk for preparation of plasma for analysis of VEGF levels. Pellets and adjacent normal mammary gland tissue were removed and formalin fixed for paraffin embedding. This experiment was repeated four times.
Microsope visual fields, visualized with a 20× objective were analyzed for cellular invasion, and with a 40× objective for the presence of functional blood vessels, for a final magnification of 200 or 400×, respectively. The ability of dietary CLA to affect cellular invasion into the EHS-RBM pellet was analyzed on H&E-stained paraffin sections by counting the number of nuclei per field, excluding all acellular regions that remained uninvaded. A total of 68 fields were assessed in 13 pellets from mice on control diets, 75 fields were assessed from 9 pellets from mice on 1% CLA diets, and 62 fields analyzed from 13 pellets, obtained from mice on 2% CLA diets. We analyzed all pellets retrieved from the animals; there was a decline in the number of visible pellets in CLA-fed animals.
Functional angiogenesis was quantified by determining the number of cell-lined structures with patent lumen and red blood cells. H&E stained paraffin sections were visualized by epifluorescent illumination; red blood cells are strongly fluorescent due to their intensely eosinophilic cytoplasm. This intensity is easily distinguished from the dimly fluorescent nucleated cells. The relative dimness of nucleated cells may be partly due to the presence of nuclear and/or cytoplasmic hematoxylin, which quenches fluorescence. A total of 162 fields were analyzed from 21 slides from control diet animals, 158 fields were analyzed from 21 slides from 1% CLA diet animals, and 174 fields were analyzed from 13 slides from 2% CLA diet animals.

For another experiment, the system named is VEGF-A. The experiment in a line: Serum VEGF analysis by ELISA after EHS-RBM challenge. The class given is in vivo, CD2/F1 mice. Particulars: for reduction of average serum VEGF levels: 7 days after angiogenic challenge, relative to control diet. The method, then:
as §1
Serum VEGF (VEGF-A) levels were assessed by ELISA using a commercial kit (Quantikine M mouse VEGF ELISA, R&D Systems), as per the manufacturer's instructions. VEGF levels were assessed in sera from mice which had been on diet for a total of 7 weeks, and had received EHS-RBM angiogenic challenge 1 week prior to sacrifice.

In another experiment the test system is VEGF. The experiment is described as follows: Western blot of VEGF in whole mammary gland lysates. The class given is in vivo, CD2/F1 mice. Conditions: dietary CLA 7 weeks, no angiogenic challenge, dose-dependent. The method, then:
(§2) Alternately, for analysis of whole mammary gland levels of VEGF and Flk-1, 10 mice per group were placed on diet at 8 weeks of age, and mice were sacrificed 7 weeks after diet initiation. Mammary glands were snap-frozen in liquid nitrogen to be utilized for preparation of whole gland lysates.
Whole mammary glands (gland four) were dissected after sacrifice from mice fed control- or CLA-supplemented diets, snap-frozen in liquid nitrogen and stored at −80° C. Lysates were prepared by pulverizing the frozen glands in a liquid nitrogen-cooled metal pulverizer to a fine powder. The powder was weighed in a pre-tared microfuge tube, and resuspended in ice-cold Triton X-100 lysis buffer (50 mM Tris, pH7.5 at room temperature, 250 mM NaCl, 5 mM EDTA, 0.1% (v/v) Triton X-100, supplemented with 0.1 mM PMSF, 20 ng/ml leupeptin and 100 ng/ml soybean trypsin inhibitor) using 2 ml per gram of tissue. The powder was then homogenized in an ice-cold microfuge tube, using 10–15 strokes of a fitted glass homogenizer. […] Lysates from 7 mice per dietary group were analyzed.
Lysates were loaded using equal protein per well, and proteins were separated on a 7.5% reducing SDS-gel according to the method of Laemmli well known in the art. […] Specific antibody-reactive bands were quantified by densitometry using a Model 300A Scanning Laser Densitometer and ImageQuant software (Molecular Dynamics).

The next experiment relates to Flk-1 (VEGF receptor 2). The experiment in a line: Western blot of Flk-1 in whole mammary gland lysates. The format is in vivo, CD2/F1 mice. As to the method: as §2
Whole mammary glands (gland four) were dissected after sacrifice from mice fed control- or CLA-supplemented diets, snap-frozen in liquid nitrogen and stored at −80° C. Lysates were prepared by pulverizing the frozen glands in a liquid nitrogen-cooled metal pulverizer to a fine powder. The powder was weighed in a pre-tared microfuge tube, and resuspended in ice-cold Triton X-100 lysis buffer (50 mM Tris, pH7.5 at room temperature, 250 mM NaCl, 5 mM EDTA, 0.1% (v/v) Triton X-100, supplemented with 0.1 mM PMSF, 20 ng/ml leupeptin and 100 ng/ml soybean trypsin inhibitor) using 2 ml per gram of tissue. The powder was then homogenized in an ice-cold microfuge tube, using 10–15 strokes of a fitted glass homogenizer. Samples were incubated on ice for 30 minutes, and then centrifuged for 10 min at 4° C. at 8,000×g. The supernatants were then aliquoted and frozen at −20° C. An aliquot of the sample was used to determine protein concentration, using the Bio-Rad protein assay. Immediately before electrophoresis, samples were prepared for loading by adding 4× Laemmli SDS-sample buffer at a 1:3 ratio to the thawed sample. The sample was then boiled, sonicated, and centrifuged for 10 min at 4° C., 8,000×g in a microfuge, before loading supernatant. Lysates from 7 mice per dietary group were analyzed.
Lysates were loaded using equal protein per well, and proteins were separated on a 7.5% reducing SDS-gel according to the method of Laemmli well known in the art. Proteins were transferred to nitrocellulose using a Bio-Rad Transblot Apparatus (Hercules, Calif.). Blots were blocked with Blotto (TBS (10 mM Tris, pH 8.0, 150 mM NaCl), 0.5% Tween 20, 5% (w/v) non-fat dry milk). All antibody incubations and subsequent rinses were performed in Blotto, with vigorous rocking. Rabbit anti-VEGF-A was used at a final concentration of 2 μg/ml, and rabbit anti-Flk-1 was used at a final concentration of 1 μg/ml. To control for variability in loading, the same blots used for VEGF were stripped and probed for Flk-1. The blots were then stripped again and probed with mouse antisera to hsc70, at a 1:20,000 final concentration. Hsc70 was used as a control for cellular protein loading of western blots, as a constitutively expressed cytoplasmic housekeeping protein. […] Specific antibody-reactive bands were quantified by densitometry using a Model 300A Scanning Laser Densitometer and ImageQuant software (Molecular Dynamics).

For experiment [2], the system named is rat mammary stromal cells (MSC). The experiment in a line: In vitro angiogenesis assay: microcapillary network formation on EHS-RBM. The class given is cell-based. Particulars: 7 days in culture; for microcapillary network diameter: 75, 100 and 125 μM. As to the method: An in vitro angiogenesis assay, the formation of microcapillary networks by rat mammary stromal vascular precursor cells on the angiogenic substrate, EHS-RBM, was used to compare the isomer- and concentration-dependent effects of mixed CLA isomers and c9,t11- and t10,c12-CLA. Rat mammary stromal cells (MSC) have the ability to act as true vascular precursors and were isolated from mammary glands as described (Zangani et al., 1999).
CLA-containing media was prepared as follows. Briefly, 18.1 μl of 5N NaOH was added to 28.2 μl of CLA (0.9 g/ml, FW 280) in a small Erlenmeyer flask, followed by vortexing, to make the sodium salt. Warm fetal calf serum (10 ml) was added, sonicated 3–4× with brief pulses (5 sec each), and then gassed with nitrogen and the flask sealed with parafilm. The mixture was incubated in a sonicating water bath for 30 min, followed by 5 min incubation in a 50° C. water bath. FBS (11.9 ml) was added to the flask, to bring the CLA to a final 33× concentration (4.125 mM).
Early passage MSC (prior to passage 4) were cultured in a 24 well plate at 2×10^4 cells/well, plated onto 0.4 ml EHS-RBM in the presence of phenol red free F12/DME with 3% FCS, supplemented with 0, 25, 50, 75, 100 or 125 μM CLA. After 7 days in culture, when the cells had formed multiple colonies of three-dimensional networks of tubules (Zangani et al., 1999), capillary networks were photographed, and the extent of network formation was assessed by measuring four planar diameters, at 45° intervals, of the branching colonies. The five largest colonies in each of three wells per group were assessed, for a total of fifteen colonies for each concentration of CLA per experiment. This experiment was replicated twice.

Experiment [3] concerns mouse epidermal carcinogenesis. Conditions: Ha et al, 1987; Belury et al, 1996; cited from earlier work.
The test system of experiment [4] is mouse forestomach neoplasia. Particulars: Ha et al, 1990; cited from earlier work.
Experiment [5] has as its system rat mammary carcinogenesis. Conditions: Ip et al, 1991, 1994, 1995; cited from earlier work.
Experiment [6] relates to aberrant crypt foci in the rat colon. Conditions: Liew et al, 1995; cited from earlier work.
For experiment [7], the system named is MDA-MB468 breast cancer cells and DU-145 prostatic tumor cells. Particulars: MDA-MB468 and DU-145 cells in SCID mice; Visonneau et al, 1997; Cesano et al, 1998; cited from earlier work.

Conjugated Linoleic Acid [CLA]: the “functional angiogenesis within the EHS pellet (structures containing red blood cells)” value in experiment [1] (1% CLA diet vs control diet) and in [1] (2% CLA diet vs control diet) was “significantly decreased” throughout. Also, the “cellular invasion, number of nuclei per field in the invaded regions of the pellet” value in experiment [1] (CLA-fed mice (1% or 2% CLA diet) vs control diet, 7 days after EHS-RBM injection) was “significantly decreased”. For the same molecule, in [1] (CLA-fed vs control mice, data not shown), the “average measured depth of cellular infiltration of the pellet” value is listed as “not different”. For the same molecule, the “reduction of average serum VEGF levels” value with VEGF-A (1% CLA diet for 7 weeks) and in the experiment with VEGF-A (2% CLA diet for 7 weeks) was “approximately 40%” in each case. The “systemic effect on serum VEGF with or without angiogenic challenge” value in the experiment with VEGF-A (data not shown) is recorded as “only significant in mice stimulated by angiogenic challenge”. The “mammary gland VEGF 28 kDa band, densitometry normalized to hsc70” value with VEGF is reported as “significantly decreased”. Further, in the experiment with VEGF, the “mammary gland VEGF 54 kDa band, densitometry normalized to hsc70” value is “significantly decreased”. Also, the “expression of Flk-1 protein on western blot” value with Flk-1 (VEGF receptor 2) (animals fed 2% CLA) is listed as “uniformly low expression”; with Flk-1 (VEGF receptor 2) (mice fed 1% CLA), “variable expression”. For the same molecule, the “mammary gland Flk-1 60 kDa band, scanning densitometry” value in the experiment on Flk-1 (VEGF receptor 2) (dietary CLA, dose-dependent) was “statistically significant decrease”. Further, in the experiment on Flk-1 (VEGF receptor 2) (dietary CLA, dose-dependent), the “mammary gland Flk-1 200 kDa band, scanning densitometry” value was “statistically significant decrease”. For the same molecule, in [2], the microcapillary network diameter entry is “significantly decreased”. For the same molecule, in experiment [2] (MSC on EHS-RBM), the “total number of colonies and size/extent of their branching” value is “inhibited”. Moreover, in experiment [3], the “DMBA-induced mouse epidermal carcinogenesis” value is “inhibit”. For the same molecule, the “BP-induced mouse forestomach neoplasia” value in experiment [4] is given as “inhibit”. For the same molecule, the “DMBA- and NMU-induced rat mammary carcinogenesis” value in experiment [5] is “inhibit”. Besides, the “incidence of aberrant crypt foci in the rat colon” value in [6] was “inhibit”. Further, the “size and metastatic spread of human tumor cells” value in experiment [7] is given as “reduce”.
In the case of `CCCCCC/C=C/C=C\CCCCCCCC(=O)O` [c9,t11-CLA, cis-9, trans-11 CLA], the microcapillary network diameter entry in [2] is “significantly decreased”.
Turning to `CCCCC/C=C\C=C\CCCCCCCCC(=O)O` [t10,c12-CLA], the microcapillary network size result in [2] (100 and 125 μM) is “significant decreased”.

Values taken from patent US6977271B1, “Method for inhibition of angiogenesis and vasculogenesis” (Health Research, Inc., priority 2001, dated 2005).
